Laboratory results from patent publication US20250206780A1, “CYCLIC PEPTIDES AND THEIR USE FOR THE TREATMENT OF DISEASES ASSOCIATED WITH DICARBONYLS LIKE METHYLGLYOXAL” (UNIVERSITÄT HEIDELBERG, priority 2022, published 2025).
Starred links: 1 amine or outer side, 2 acyl side, 3 side chain; linkers in the order of their positions; H or OH if unused. Positions of bridges follow the written chain, without caps; N, C: chain ends. Residues, ends and D or L forms follow the SMILES beside them. Groups on a side chain read outwards from the residue. *: point of attachment. d(γGlu) = O=C(O)[C@@H](CCC(=O)[*:2])N[*:1]; C16 diacid = O=C(O)CCCCCCCCCCCCCCC(=O)*; Dap = NC[C@H](N)C(=O)O

How the values were obtained:
[1] = design: species or system mice; settings: mouse, in vivo
Method: Animals were injected with Dap3 and blood was collected into EDTA containing tubes at indicated time points with n=3 per time point. After centrifugation EDTA plasma was stored at −80° C. until analysis. Dap3 was quantified by LC MS/MS as described in section 6.
6. Detection of Dap3 and MG-Modified Dap3 by LC-MS/MS A Dap3-MG standard was prepared by incubation of Dap3 with methylglyoxal in 0.1 M phosphate buffer followed by purification by preparative HPLC. The peptide CycK(e-Hdd)R4E was employed as internal standard which was added to the standard curve and plasma samples prior to precipitation. Prior to analysis 2 parts acetonitrile were added to the plasma, vortexed and centrifuged for 10 min at 13,000 g. The supernatant was analysed using an ACQUITY UPLC I fitted with a Acquity UPLC BEH C18 column (Waters, 2.1 mm*100 mm, […]) with a pre-column (2.1×5 mm, 1.7 μm) and a Xevo TQ-XS mass spectrometer (Waters, USA). Solvent A was water+0.1% formic acid and solvent B was acetonitrile+0.1% formic acid. A linear gradient from 0-100% solvent B at a flow rate of 0.2 ml/min over 20 min and a column temperature of 30° C. was used. The detailed parameters for the quantification of Dap3, Dap3-MG and CycK(e-Hdd)R4E, are described below

[2] = Bowman et al., 1996; cited from earlier work

plasma half-life [1] | SMILES | half-life [2]
long plasma half-life | NC[C@H](N)C(=O)NCCCC[C@@H]1NC(=O)[C@H](CCCCNC(=O)[C@@H](N)CN)NC(=O)[C@H](CCC(=O)O)NC(=O)[C@H](CCCCNC(=O)[C@@H](N)CN)NC(=O)[C@H](CCCCNC(=O)CC[C@@H](NC(=O)CCCCCCCCCCCCCCC(=O)O)C(=O)O)NC(=O)CC[C@@H](C(=O)O)NC1=O [Dap3] (K([d(γGlu)-C16 diacid])K(Dap)EK(Dap)K(Dap)E-OH; lactam N-6) | –
– | N=C(N)NN [Aminoguanidine] | very short
